{"source": "patent US10022382B2", "about": "“RNA polymerase I inhibitors and uses thereof” (Tel HaShomer Medical Research Infrastructure and Services …, priority 2013, dated 2018)", "key": {"pre-rRNA [1]": {"test_system": "pre-rRNA", "assay": "Q-RT-PCR of pre-rRNA in PHA-stimulated splenocytes of naive mice", "format": "cell-based", "settings": "72 hours, 25 to 400 nM", "procedure": "RNA samples from similar cultures were also prepared and tested by Q-RT-PCR for pre-rRNA expression levels as described in Example herein below.\n(§1) RNA Extraction: For in vivo experiments spleens from EAE mice were isolated at day 17 post immunization and splenocytes were re-stimulated for 72 h hours in the presence of 5.0 μg/ml MOG35-55. For in-vitro experiments spleens from intact mice were isolated and splenocytes were stimulated with for 72 h in the presence of PHA. RNA was extracted from splenocytes of both the in-vitro and in-vivo experiments by robotic ABI PRISM, Applied biosystem 6100 Nucleic Acid Prep Station. To avoid genomic DNA contamination samples were treated with DNase I (Roche). The quality and integrity of the total RNA preparation was confirmed using a NanoDrop 2000c Spectrophotometer (Thermo Scientific).\n(§2) Quantitative RT-PCR of Pre-rRNA: Complementary DNA was obtained from the extracted RNA by the High capacity cDNA reverse transcription kit (Applied Biosystems, CA, USA) following manufacturer's instructions. To confirm the role of POL1 pathway suppression by POL1-Inhibitors, the expression level of pre-rRNA transcript, a key gene of the RNA polymerase I pathway, was evaluated by Q-RT-PCR (n=3 per group). […] (SEQ ID NO: 70) with a quantification probe (Roche, Probe ID #1, cat. no. 04684974001). […]"}, "[2]": {"test_system": "MOG35-55 EAE in C57BL/6J mice", "assay": "MOG35-55 EAE prevention (immunization) model", "format": "in vivo", "settings": "for minimal effective dose: oral", "procedure": "Mice: Eight-weeks-old female C57BL/6J mice (15-20 g, Harlan laboratories, Rehovot, Israel) were used in all experiments. Animal maintenance and experimental protocols were performed in accordance with the Israeli Council for Animal Care guidelines and approved by Sheba IRB Animal Care Committee. Mice were kept in an SPF environment, maintained on a 12-h light/dark cycle at a constant environmental temperature with free access to food and water in their home cages.\nInduction of MOG35-55 EAE (Prevention Model): EAE (Experimental Autoimmune Encephalomyelitis) was induced in 8 week old female C57BL/6J mice (15-20 g, Harlan laboratories, Rehovot, Israel) by immunization with an emulsion containing 300 μg of purified myelin oligodendrocyte glycoprotein (MOG) peptide ([…], corresponding to residues 35-55; obtained from (Difco, Detroit, Mich.) in saline and an equal volume of complete Freund's adjuvant containing 5 mg H37RA (Difco, Detroit, Mich.). 0.2 ml of the inoculum was injected subcutaneously. In addition, 300 ng of Bordetella pertusis toxin (Sigma) in 0.2 ml saline was injected intraperitoneally at the day of induction and two days later.\nOral gavages with the tested compound, at various concentrations ranging from 3 mg/kg-30 mg/kg in PBS or 50 mM NaH2PO4 (PH 4.5), or with vehicle only, were initiated at day of immunization. Mice were monitored daily for clinical signs of EAE, scored as: 1, flaccid tail; 2, forelimb weakness and poor righting ability; 3, hind limb paralysis; 4, quadriplegia; 5, moribund. Animal reaching a score of 4 were scarified using CO2.\nTreatment was stopped once 30% of the vehicle-treated animals scored 1 on the EAE score. […]\nThe therapeutic index (LD50/ED50), which is also referred to herein as Safety Margin (SM), was then determined based on the EAE model. ED50 is the minimum effective dose observed for 50% of the tested animals."}, "pre-rRNA [3]": {"test_system": "pre-rRNA", "assay": "Q-RT-PCR of pre-rRNA in splenocytes of treated EAE mice", "format": "in vivo", "settings": "12.5 mg/Kg, 17 days following immunization", "procedure": "as §1\nas §2, with “group). All PCR reactions were performed on a Light Cycler 480 instrument (Roche Diagnostic). The pre-rRNA, specific primers used were Forward: […] (SEQ ID NO: 69) and Reverse:” for “group).”"}, "naive mice": {"test_system": "naive mice", "assay": "Single dose oral toxicity in naive mice", "format": "in vivo", "settings": "single oral dose 3 mg/kg to 500.0 mg/kg, 24 h", "procedure": "The toxicity of oral administration of a single dose of Compound 10 was tested in naïve mice using range from 3 mg/kg to 500.0 mg/kg."}, "Pol I": {"test_system": "Pol I", "assay": "Cell-free Pol I transcription assay", "format": "biochemical, human", "settings": "200 nM", "procedure": "Cell-free Pol I transcription assay was performed according to Drygin et al. (2010). Briefly, a reaction mixture consisting of 8 units of HeLa scribe nuclear extract (Promega) in transcription buffer and MgCl2 (4 mM) was combined with POL1-Inhibitor (200 nM) and […] a-amanitin (Sigma) for 20 minutes at ambient temperature. Following, 10 ng DNA template (GENEWIZ, Inc.; http://www(dot)genewiz(dot)com(dot)cn) corresponding to the (−160/+350) region on human rDNA was added and the reaction was incubated for 5 minutes at ambient temperature. Transcription was initiated by adding rNTPs mix to a final concentration of 1 mM and the reaction was incubated for 1 hour at 30° C. Afterward, DNase I (Ambion kit) was added and the reaction was further incubated for 25 minutes at 37° C. DNase activity was terminated with adding an inactivation solution according the manufacturer's protocol. The samples were then subjected for RNA isolation (following the same procedure described in Example 3 hereinabove). Pellets of RNA were re-suspended in DEPC-treated double distilled water and subjected for reverse transcription by a High capacity kit (Applied Biosystems). The resultant transcripts were analyzed by qRT-PCR in a Light cycler 480 system using primer pairs (Sigma) and probe for real-time PCR. […]"}, "splenocytes": {"test_system": "splenocytes", "assay": "Viability, proliferation and apoptosis of MOG 35-55 incubated splenocytes from immunized mice (XTT, BrdU, flow cytometry)", "format": "cell-based", "settings": "splenocytes 14 days post immunization, 72 h MOG 35-55, vs vehicle", "procedure": "In addition, viability, proliferation and apoptosis of splenocytes isolated from mice 14 days post immunization and incubated for 72 h with MOG 35-55 were assessed by XTT, BrdU and flow cytometry (Annexin V and propidium iodide double staining) assays, respectively."}}, "data": [{"smiles": "Cc1cnc(CNC(=O)c2/c(=N/c3ccccc3)c3ccc(N4CCCN(C)CC4)nc3n3c2sc2ccccc23)cn1", "note": "[Compound 10, (E)-2-(4-methyl-1,4-diazepan-1-yl)-N-((5-methylpyrazin-2-yl)methyl)-5-(phenylimino)-5H-benzo[4,5]thiazolo[3,2-a][1,8]naphthyridine-6-carboxamide]", "values": [{"measurement": "pre-rRNA mRNA levels expressed by splenocytes", "setting": "pre-rRNA [1]", "result": "significant dose dependent decrease"}, {"measurement": "disease incidence", "setting": "[2]; 3 mg/kg, alternate days", "result": 98, "unit": "%"}, {"measurement": "delay of disease development", "setting": "[2]; 12.0 mg/kg oral, alternate days", "result": 10, "unit": "days"}, {"measurement": "EAE severity", "setting": "[2]; 12.0 mg/kg oral, alternate days, 23 day post immunization", "result": "suppressed EAE severity"}, {"measurement": "EAE onset (dpi)", "setting": "[2]; 12.5 mg/Kg oral, 15 mice", "result": "19.2 ± 0.6", "unit": "dpi"}, {"measurement": "Max clinical score", "setting": "[2]; 12.5 mg/Kg oral, 15 mice", "result": "1.2 ± 0.4"}, {"measurement": "Peak of EAE (dpi)", "setting": "[2]; 12.5 mg/Kg oral, 15 mice", "result": "20.4 ± 0.7", "unit": "dpi"}, {"measurement": "Cumulative disease score", "setting": "[2]; 12.5 mg/Kg oral, sum of scores day 0 to day 31", "result": "7.2 ± 1.9"}, {"measurement": "additional days free of disease compared to vehicle", "setting": "[2]; 12.5 mg/Kg, 15 mice per group", "result": 10, "unit": "days"}, {"measurement": "delay of peak of disease compared to vehicle", "setting": "[2]; 12.5 mg/Kg, 15 mice per group", "result": 6, "unit": "days"}, {"measurement": "EAE inhibition", "setting": "[2]; 12.5 mg/kg daily", "result": "complete inhibition of EAE"}, {"measurement": "disease incidence", "setting": "[2]; 12.5 mg/kg, alternate days", "result": 22, "unit": "%"}, {"measurement": "disease development", "setting": "[2]; 30 mg/kg, alternate days", "result": "completely inhibited disease development"}, {"measurement": "ED50", "setting": "[2]; Mus musculus", "result": 3, "unit": "mg/kg"}, {"measurement": "minimal effective dose", "setting": "[2]; alternate days", "result": 6, "unit": "mg/kg"}, {"measurement": "minimal effective dose", "setting": "[2]; daily administration", "result": 3.0, "unit": "mg/kg"}, {"measurement": "decrease in pre-rRNA mRNA levels compared to vehicle", "setting": "pre-rRNA [3]", "result": 5.9, "unit": "folds"}, {"measurement": "behavioral changes", "setting": "naive mice", "result": "No behavioral changes"}, {"measurement": "survival", "setting": "naive mice", "result": "No effect on survival"}, {"measurement": "inhibition of Pol I transcription from the pre-rRNA promoter", "setting": "Pol I", "result": "about 40%"}, {"measurement": "apoptosis (Annexin V and propidium iodide)", "setting": "splenocytes", "result": "induced apoptosis in CD4+ lymphocytes"}, {"measurement": "cell proliferation (BrdU)", "setting": "splenocytes", "result": "suppressed cell proliferation"}, {"measurement": "viability (XTT)", "setting": "splenocytes", "result": "reduced viability"}]}]}
